This test relates to CD44. Description: CD44 expression by immunoblotting in H2228 cells. The note with it: 48 hours treatment, 0-1000 nM. It is filed as cell-based, human. The procedure:
NSCLC cell line H2228 (harboring endogenous EML4-ALK fusion gene) was cultured in RPMI medium supplemented with 10% fetal bovine serum and 100 U/mL of penicillin/streptomycin. Ba/F3 and NIH3T3 cells stably expressing ROS1, or TRKA, or TRKB, or TRKC (WT or mutant) were cultured as mentioned above. […] Cells were collected after treatment and lysed in RIPA buffer (50 mM Tris, pH 7.4, 150 mM NaCl, 1% NP-40, 0.5% Deoxycholate, 0.1% SDS) supplemented with 10 mM EDTA, 1× Halt protease and phosphatase inhibitors (Thermo Scientific). Protein lysates (approximately 20 μg) was resolved on 4-12% Bolt Bis-Tris precasted gels with MES running buffer (Life Technologies), transferred to nitrocellulose membranes using Trans-Blot Turbo Transfer System (Bio-Rad) and detected with antibodies targeting phosphorylated phosphorylated ROS1 and total ROS1 (Cell Signaling Technology), phosphorylated TRK A/B (Cell Signaling Technology), total TRKA antibody (Santa Cruz Biotechnology), phosphorylated SRC Y416 (Cell Signaling Technology), total SRC (Cell Signaling Technology), phosphorylated FAK Y576/577 (Cell Signaling Technology), total FAK (Cell Signaling Technology), phosphorylated paxillin Y118 (Cell Signaling Technology), total paxillin (Cell Signaling Technology), phosphorylated EGFR and total EGFR, CD44, and Tubulin (Sigma). […]
A general note: Immunoblotting shows a protein as a band on a membrane.

On to `C[C@@H](Oc1cc(-c2cnn(C3CCNCC3)c2)cnc1N)c1c(Cl)ccc(F)c1Cl` [crizotinib, reference compound], for which the CD44 expression level entry was “does not show down-regulation of CD44 expression”.
